Results on nine molecules are retold here after patent US5364867A, “4-phenylpiperdine agents for treating cns disorders” (Sterling Winthrop Inc., priority 1992, dated 1994).

pKi: −log10 of the molar value. Counter-ions that a name gives are not always drawn.

The target of this assay is sigma receptors. Description: sigma receptor binding, [3H]di(2-tolyl)-guanidine (DTG) assay, guinea pig brain membranes. Particulars: [3H]DTG approximately 4 nM; male Hartley guinea pig brain membranes; 25° C. for 90 min; nonspecific binding 10 μM haloperidol. As to the method:
Brain tissue was prepared from male Hartley guinea pigs (Hazelton Labs, Denver, Pa.) which were anesthetized with CO2 and sacrificed by decapitation. All animal care and use procedures were in accord with the "Guide for the Care and Use of Laboratory Animals" (NIH Publ. No. 86-23, 1985). Homogenization was performed in 10 volumes (wt/vol) of 0.32M sucrose with a Brinkmann Polytron at setting 5, 30 sec. The homogenate was centrifuged at 900×g for 10 min at 4° C., and the supernatant was collected and centrifuged at 22,000×g for 20 min at 4° C. The pellet was resuspended in 10 volumes of Tris-HCl buffer (50 mM, pH 7.4), incubated at 37° C. for 30 min and centrifuged at 22,000×g for 20 min at 4° C. Following this, the pellet was resuspended in Tris buffer and frozen in 5-10 mL aliquots corresponding to a tissue concentration of 100 mg/mL at -70° C. Binding characteristics of the membranes were stable for at least one month when stored at -70° C.
On the day of the assay, membrane aliquots were thawed, resuspended in fresh Tris buffer and stored on ice until use. Each assay tube contained 100 μL of [^3 H](+)pentazocine at a final concentration of approximately 0.5 nM, [^3 H]di(2-tolyl)-guanidine (DTG) at a final concentration of approximately 4 nM, 100 μL of various concentrations of the compounds of interest, 500 μL of the tissue suspension and 300 μL of buffer to a final assay volume of 1 mL and a final tissue concentration of approximately 8 mg/tube, corresponding to approximately 0.15 mg protein/tube. Nonspecific binding was defined by addition of a final concentration of 1 μM haloperidol to blank tubes for the [^3 H](+)pentazocine assay or by addition at a final concentration of 10 μM haloperidol to blank tubes for [^3 H] DTG assay. All tubes were incubated at 37° C. for 150 min ([^3 H](+)pentazocine) or at 25° C. for 90 min ([^3 H]DTG) before termination of the reaction by filtration over Whatman GF/B glass fiber filters that were presoaked in a solution of 0.5% polyethyleneimine for at lease 1 hr prior to use. Filters were washed with three 4 mL volumes of cold Tris-HCl buffer.
Following addition of scintillation cocktail, samples were allowed to equilibrate for at least 4 hr. The amount of bound radioactivity was determined by liquid scintillation spectrometry using a Beckman LS 5000 TA liquid scintillation counter with an efficiency for tritium of approximately 60%. The results are reported as a percent (%) inhibit ion of binding at 10 μM.
Data obtained on the compounds in the di(2-tolyl)guanidine (DTG) and d-pentazocine (+Pent) assays are expressed as a Ki value in nM. The number of determinations follow this value in parentheses.
The pKi is −log10 of the Ki, conventionally taken in molar units. `CCC(=O)C1(c2ccccc2)CCN(CCCc2ccccc2)CC1` [Example 5, 4-Phenyl-1-(3-phenylpropyl)-4-propionylpiperidine] had a negative-log Ki (pKi) of 8.04.

For `COc1cccc(C2CCN(CCCc3ccccc3)CC2)c1` [Example 3a, 4-(3-methoxyphenyl)-1-(3-phenylpropyl)piperidine hydrochloride], the pKi was 8.66.

The molecule `O=C(N1CCCC1)C1(c2ccccc2)CCN(CCCc2ccccc2)CC1` [Example 2b, 4-Phenyl-1-(3-phenylpropyl)-4-(1-pyrrolidinylcarbonyl)piperidine] gave a pKi of 6.94. In turn, `CCC(=O)OC1(c2ccccc2)CCN(CCC(=NO)c2ccccc2)CC1` [Example 6, 4-Phenyl-1-(3-oximino-3-phenylpropyl)-4-propionoxypiperidine] had a pKi of 6.23. The molecule `CCOC(=O)C1(c2ccccc2)CCN(CCCc2ccccc2)CC1` [Example 7, Ethyl 4-Phenyl-1-(3-phenylpropyl)-4-piperidinecarboxylate] had a pKi of 7.05. In the case of `O=C(CCc1ccccc1)N1CCC(O)(c2ccccc2)CC1` [Example 1, 4-Phenyl-4-hyroxy-1-(3-phenylpropionyl) piperidine], the pKi is 4.46. The molecule `O=C(O)C1(c2ccccc2)CCN(CCCc2ccccc2)CC1` [Example 2a, 4-phenyl-1-(3-phenylpropyl)-4-piperidinecarboxylic acid] gave a pKi of 7.79. On to `O=C(c1ccccc1)C1(c2ccccc2)CCN(CCCc2ccccc2)CC1` [Example 4, 4-benzoyl-4-phenyl-1-(3-phenylpropyl)piperidine], for which the pKi was 7.66. In turn, `Oc1cccc(C2CCN(CCCc3ccccc3)CC2)c1` [Example 3b, 4-(3-hydroxyphenyl)-1-(3-phenylpropyl)piperidine hydrochloride] gave a pKi of 9.19.
